According to patent publication US8871735B2, “Methods and compositions for providing cardiac protection” (University of Medicine and Dentistry of New Jersey, priority 2008, dated 2014):

Tests used:
[1] = test system: AC5; details: cited from earlier work
[2] = test system: cardiac myocytes; details: cited from earlier work
[3] = target: AC2 (UniProt P26769); assay: AC inhibition, recombinant AC proteins: AC2; assay type: biochemical
[4] = target: T1, AC3 (Rattus norvegicus, UniProt P21932); assay: AC inhibition, recombinant AC proteins: AC3; assay type: biochemical
T1 construct: made in house

[5] = target: T2, AC5 (UniProt P30803); assay: AC inhibition, recombinant AC proteins: AC5; assay type: biochemical; details: recombinant AC proteins; read-out: IC50 AC5
T2 construct: IC50 AC5; other: recombinant AC proteins; other: THFA: in the presence of Gs-α/GTPαS/forskolin

[6] = test system: AC5; assay: AC inhibition, recombinant AC proteins: AC5; assay type: biochemical
[7] = test system: cardiac myocytes; assay: ISO-stimulated cAMP accumulation in cultured cardiac myocytes; assay type: cell-based, mouse; details: 10 μM compound
[8] = test system: cardiac myocytes; assay: ISO-induced apoptosis in cultured cardiac myocytes (DNA fragmentation ELISA); assay type: cell-based; details: 100 μM ISO, 48 h
Protocol: Cultured cardiac myocytes were incubated with 100 μM ISO in the presence or absence of AC5 inhibitors at the indicated concentrations for 48 h.

[9] = test system: cardiac myocytes; assay: ISO-induced cell contraction in cultured cardiac myocytes; assay type: cell-based; details: 10 μM
[10] = test system: C57Bl/6 mice, chronic ISO infusion; assay: Chronic ISO infusion heart failure model; assay type: in vivo, mouse; details: for ISO-induced decrease in LVEF (and FS): ISO 60 mg/kg/d 7 days, Ara-Ade 20 and 100 mg/kg/day, 2′5′ ddAdo 20 mg/kg/day
Excerpt: (§1) ISO with or without AC5 inhibitors were chronically infused with osmotic mini-pump implanted subcutaneously at indicated doses for 1 week in c57Bl/6 mice. Mice were then subjected to echocardiography (a) and the hearts were removed and subjected to pathological examinations such as myocardial apoptosis (b) and fibrosis (c). n=4-8.
(§2) In C57Bl/6 mice, ISO with or without AC5 inhibitors or metoprolol were chronically infused with an osmotic mini-pump at the indicated doses for 1 week. Mice were then subjected to echocardiography (a) and heart tissue were subjected to a myocardial apoptosis assay (b). *, p<0.01 vs vehicle. #, p<0.05 vs vehicle. .dagger., p<0.01 vs ISO. .dagger-dbl., p<0.05 vs ISO. n=4-15. […] Comparisons between multiple groups were made using ANOVA with post-hoc tests.
Tenofovir diphosphate (PMPA-PP), zidovudine monophosphate (MP), zidovudine diphosphate (PP), zidovudine triphosphate (TP), famciclovir penciclovir and valaciclovir were purchased from Moravek. Formycin A (FMA) and Formycin B (FMB) were purchased from Berry and Associates. All other reagents were from Sigma unless specified. Long-term infusion of isoproterenol (Sigma, St. Louis, Mo.) was performed for 7 days at a dose of 60 mg/kg/d with or without AC5 inhibitors by using a miniosmotic pump (ALZET model 2001, DURECT Corp, Cupertino, Calif.). Control mice received vehicle in pumps. Pumps were removed 24 hours before biochemical and physiological studies. Experiments were performed in 3- to 5-month-old male C57Bl/6, and in AC5Tg transgenic mice. This study was approved by the Animal Care and Use Committee at New Jersey Medical School.
(§3) Mice were anesthetized with 2.5% tribromoethanol (0.010 to 0.015 mL per gram of body weight) injected intraperitoneally, and echocardiography was performed with ultrasonography (ACUSON Sequoia C256, Siemens Medical Solutions, Malvern, Pa.). For acute injection of isoproterenol, forskolin and milrinon, a PE-10 catheter was inserted into the right jugular vein, and drugs were injected at the rate of 1 μl/s. cAMP accumulation assay in H9C2 cells, a cardiac myoblast cell line, was examined as previously described.

[11] = test system: mice; assay: Basal cardiac function (echocardiography) under chronic drug infusion alone; assay type: in vivo, mouse; details: chronic infusion of drug alone (3 days to 1 week)
Excerpt: as §1, §2
as §3, with “described. […]” for “described.”

[12] = test system: AC2; details: previously noted; cited from earlier work
[13] = test system: C57Bl/6 mice motor function; assay: Rotarod performance test and pole test; assay type: in vivo, mouse; details: Ara-Ade by mini-osmotic pump; MPTP 30 mg/kg i.p. daily for 5 days
Protocol: In C57Bl/6 mice, Ara-Ade was chronically infused with an osmotic mini-pump at the indicated doses for 5 days. a) Each mouse was placed on a rod subjected to evaluate Rotarod performance. Mice were left for 1 min on the rod for habituation. The rod rotated gradually increasing from 4 to 40 rpm over the course of 5 min, and the time that mice could stay without failing was recorded. Five trials were conducted for each individual 10-25 min apart. As a positive control, 1-methyl 4-phenyl 1,2,3,6-tetrahydropyridine (MPTP) was intraperitoneally injected for the indicated dose for 5 days. *, p<0.01 relative to vehicle. #, p<0.05 relative to vehicle. n=6-7. b) To evaluate bradykinesia, a pole test was performed. Mice were placed head upward on the top of a rough surfaced pole that was wrapped with gauze to prevent slipping. The time until the mouse turned completely downward (open bars, TTURN) and the time until it climbed down to the floor (closed bars, TLA) were measured.
Four days after the implantation, Rotarod performance test and pole test were examined as previously described. For MPTP injection (1-methyl 4-phenyl 1,2,3,6-tetrahydropyridine), mice were injected intraperitoneally (i.p.) with 0.1 mL of PBS or MPTP dissolved in PBS at 24-hour intervals for 5 days. The daily dose of MPTP was 30 mg/kg. […]

[14] = test system: patients; details: BHAT; cited from earlier work
[15] = test system: isolated perfused rat hearts; details: cited from earlier work
[16] = test system: AC; assay: cAMP production in membrane preparations from mouse heart; assay type: biochemical; details: 50 μM forskolin, 10 μM drug
Protocol: Such membrane permeability was examined using whole cell, which is addressed in FIG. 11b). cAMP production was measured with 50 μM forskolin in the presence or absence of 10 μM of the indicated drugs. n=2. (b) cAMP accumulation is shown in H9C2 cells. […] Ara-Ade (Adenine 9-β-D-arabinofuranoside) is an anti-herpes simplex drug. Fludarabine ((+)-2-Fluoro-9-(5-O-phosphono-β-D-arabinofuranosyl)-9H-purin-6-amine) and Cladribine (2-chloro-2′-deoxyadenosine) are anti-cancer drugs, Adefovir (Bis(2,2-dimethylpropanoyloxymethyl)[2-(6-amino-9H-purin-9-yl)ethoxymethyl]phosphonate) and Zidovudine are anti-HIV drugs. Zidovudine-TP is a metabolite of zidovudine which inhibits virus replication. TP; triphosphate. 3-Deazaadenosine, Formycin A (7-Amino-3-(β-D-ribofuranosyl)-1H-pyrazolo[4,3-d]pyrimidine), 2-Far (2-Fluoroadenosine), formycin A ((2S,3R,4S,5R)-2-(7-amino-2H-pyrazolo[5,4-e]pyramidin-3-yl-5-(hydroxymeth-yl)oxolane-3,4-diol), 2-FD (2-Fluoro-2′-deoxyadenosine) and 2′5′ ddAdo (2′5′-dideoxyadenosine) are experimental drugs.
Various compounds with adenine-like backbone structure were screened because this structure is essential for both AC inhibition and plasma membrane permeability. Drug effects on AC activity was examined by using membrane preparations from mouse heart and striatum, in which AC5 provides 20% and 80% of total AC activity, respectively. […]

[17] = test system: H9C2 cells; assay: cAMP accumulation in H9C2 cells; assay type: cell-based; details: 5 μM ISO, 3 minutes, 10 μM drug
Excerpt: […] Fludarabine ((+)-2-Fluoro-9-(5-O-phosphono-β-D-arabinofuranosyl)-9H-purin-6-amine) and Cladribine (2-chloro-2′-deoxyadenosine) are anti-cancer drugs, Adefovir (Bis(2,2-dimethylpropanoyloxymethyl)[2-(6-amino-9H-purin-9-yl)ethoxymethyl]phosphonate) and Zidovudine are anti-HIV drugs. Zidovudine-TP is a metabolite of zidovudine which inhibits virus replication. TP; triphosphate. 3-Deazaadenosine, Formycin A (7-Amino-3-(β-D-ribofuranosyl)-1H-pyrazolo[4,3-d]pyrimidine), 2-Far (2-Fluoroadenosine), formycin A ((2S,3R,4S,5R)-2-(7-amino-2H-pyrazolo[5,4-e]pyramidin-3-yl-5-(hydroxymeth-yl)oxolane-3,4-diol), 2-FD (2-Fluoro-2′-deoxyadenosine) and 2′5′ ddAdo (2′5′-dideoxyadenosine) are experimental drugs.
as §3

T1 sequence (P21932 whole entry): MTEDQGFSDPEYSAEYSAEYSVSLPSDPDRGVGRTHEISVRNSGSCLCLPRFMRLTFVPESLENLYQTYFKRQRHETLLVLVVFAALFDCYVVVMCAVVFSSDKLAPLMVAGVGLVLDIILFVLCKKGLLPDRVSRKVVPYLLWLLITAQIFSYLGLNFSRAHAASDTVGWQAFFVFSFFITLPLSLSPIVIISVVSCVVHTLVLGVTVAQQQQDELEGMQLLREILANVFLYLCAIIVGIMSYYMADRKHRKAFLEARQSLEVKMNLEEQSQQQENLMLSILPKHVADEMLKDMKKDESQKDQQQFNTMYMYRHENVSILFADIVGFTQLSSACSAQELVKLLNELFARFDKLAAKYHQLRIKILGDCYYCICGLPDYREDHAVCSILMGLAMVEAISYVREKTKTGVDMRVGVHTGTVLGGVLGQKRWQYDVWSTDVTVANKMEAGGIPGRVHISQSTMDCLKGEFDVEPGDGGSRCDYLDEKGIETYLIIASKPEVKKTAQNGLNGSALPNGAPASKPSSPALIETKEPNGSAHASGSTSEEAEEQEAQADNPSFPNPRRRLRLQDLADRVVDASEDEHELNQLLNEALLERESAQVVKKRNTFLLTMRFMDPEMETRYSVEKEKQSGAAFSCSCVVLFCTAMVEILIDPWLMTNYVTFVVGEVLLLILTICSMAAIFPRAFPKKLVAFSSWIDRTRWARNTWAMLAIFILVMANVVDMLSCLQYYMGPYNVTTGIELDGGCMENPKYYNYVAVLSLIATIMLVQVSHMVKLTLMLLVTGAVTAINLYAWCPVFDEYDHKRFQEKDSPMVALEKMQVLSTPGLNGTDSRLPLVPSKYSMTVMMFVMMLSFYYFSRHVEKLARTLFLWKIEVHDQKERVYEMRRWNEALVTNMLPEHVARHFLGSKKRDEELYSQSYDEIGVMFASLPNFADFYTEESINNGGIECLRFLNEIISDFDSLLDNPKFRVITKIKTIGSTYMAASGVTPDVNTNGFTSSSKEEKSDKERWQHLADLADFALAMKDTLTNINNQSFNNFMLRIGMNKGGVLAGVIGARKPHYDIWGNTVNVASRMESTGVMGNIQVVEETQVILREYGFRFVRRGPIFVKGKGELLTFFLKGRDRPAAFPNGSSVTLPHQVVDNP

Nc1ncc2c(n1)CC(c1ccco1)CC2=O (stereo not drawn) [NKY80, 2-amino-7-(2-furanyl)-7,8-dihydro-5(6H)-quinazoline]
inhibition of purified AC5 protein in vitro [1]: moderate inhibition
inhibition of cAMP accumulation in cultured cardiac myocytes [2]: did not inhibit cAMP accumulation

Nc1ncnc2c1ncn2C1CCC(C(=O)NO)C1 (stereo not drawn) [PMC-6]
IC50 [3]: 65.3 µM
IC50 [4]: 11.1 µM
IC50 [5]: 0.32 µM
Selectivity ratio for AC5, AC5/AC2 ([6]; ratio of IC50 for AC5 to that for AC2): 0.0049
Selectivity ratio for AC5, AC5/AC3 ([6]; ratio of IC50 for AC5 to that for AC3): 0.029
decrease in ISO-induced cAMP production / accumulation in cultured cardiac myocytes [7]: 50%
ISO-induced apoptosis in cultured cardiac myocytes [8]: abolished
inhibition of ISO-induced cell contraction [9]: did not inhibit

COCCc1ccc(OCC(O)CNC(C)C)cc1 (stereo not drawn) [metoprolol]
ISO-induced decrease in LVEF (and FS) [10]: attenuated ISO-induced cardiac dysfunction
ISO-induced decrease in LVEF (and FS) ([10]; listed as Metoprolol): rescued ISO-induced LVEF decrease
HR decreased by chronic ISO ([10]; chronic ISO infusion): rescue decreased HR
ISO-induced myocardial apoptosis in vivo ([10]; chronic ISO infusion): to a lesser degree than Ara-Ade
ISO-induced wall thickening (DESP, DPW) ([10]; chronic ISO infusion): did not show significant increase
basal LVEF [11]: decreased

Nc1ncnc2c1ncn2C1CCCO1 (stereo not drawn) [THFA, 9-(tetrahydro-2-furyl)adenine]
selectivity ratio between AC5 and AC2 [6]: 130
selectivity ratio between AC6 and AC2 [12]: 1.8

CN1CC=C(c2ccccc2)CC1 [MPTP, 1-methyl 4-phenyl 1,2,3,6-tetrahydropyridine]
Rotarod and pole test performance [13]: significantly impaired

CC(C)NCC(O)COc1cccc2ccccc12 (stereo not drawn) [propranolol]
decrease of sudden cardiac death, patients with a history of HF [14]: 47%
decrease of sudden cardiac death, patients with a history of MI [14]: 28%
arrhythmia in low flow perfusion / NE model [15]: effectively reduced arrhythmia

Nc1nccc2c1ncn2[C@@H]1O[C@H](CO)[C@@H](O)[C@H]1O [3-deazaadenosine, 3-Deazaadenosine]
ratio of inhibition between the heart membrane and the striatum membrane [16]: less than one
inhibition of cAMP accumulation in H9C2 cells [17]: little inhibition
